# Measured values taken from patent US20220267753A1, “RATIONAL THERAPEUTIC TARGETING OF ONCOGENIC IMMUNE SIGNALING STATES IN MYELOID MALIGNANCIES VIA THE UBIQUITIN CONJUGATING ENZYME UBE2N” (CHILDREN'S HOSPITAL MEDICAL CENTER, priority 2019, published 2022).
# What was measured:
# [1] = test system: HL-60; assay: Cell proliferation MTS assay; format: cell-based; conditions: Homo sapiens; HL-60, MTS, 24 hours
# Procedure: (§1) AML cell lines (5×10^3 cells/well) were seeded in 96-well plates and grown for 24 to 96 h in serum (10%)-containing medium in the presence or absence of inhibitors at the indicated concentrations. Proliferation was analyzed by means of an MTS assay using the CellTiter 96 Aqueous One Solution Cell Proliferation Assay (Promega, Madison, Wis., USA), according to the manufacturer's instructions. Data are mean with standard deviation from three independent experiments in technical triplicates. For the screening of 160 compounds from the UC library, the cell metabolic activity was assessed at 24 hours of treatment of MOLM-13 cells. Top 15 candidates were re-screened at 2 μM, and the cell metabolic activity was determined at 24 hours of treatment. In certain experiments, cell viability was determined by staining the cells with trypan blue at a 1/2 dilution and counting total number of viable cells upon treatment with UC-764864 or DMSO control. The cells were counted daily for 4 days using an automated cell counter (Countess II FL from Life Technologies). The cell proliferation in primary AMLs in FIG. 9E was performed as follows: 50,000 cells were plated in duplicate in a 96 well plate in IMDM containing 20% heat inactivated FBS plus 10 ng/ml of each SCF, IL3, IL6, TPO, and FLT3. UC-764864 was added at the indicated concentrations and cells were incubated with drug for 3 days, at which point cell viability was measured by MTS according to manufacturer's instructions.
# [2] = test system: KG-1a; assay: Cell proliferation MTS assay; format: cell-based; conditions: Homo sapiens, 24 hours
# Procedure: as §1
# [3] = test system: Kasumi-1; assay: Cell proliferation MTS assay; format: cell-based; conditions: Homo sapiens; Kasumi-1, MTS, 24 hours
# Procedure: as §1
# [4] = test system: MDS92; assay: Cell proliferation MTS assay; format: cell-based; conditions: Homo sapiens, 24 hours
# Procedure: as §1
# [5] = test system: MDSL; assay: Cell proliferation MTS assay; format: cell-based; conditions: Homo sapiens, 24 hours
# Procedure: as §1
# [6] = test system: MOLM-14; assay: Cell proliferation MTS assay; format: cell-based; conditions: Homo sapiens; MOLM-14, MTS, 24 hours
# Procedure: as §1
# [7] = test system: MV4-11; assay: Cell proliferation MTS assay; format: cell-based; conditions: Homo sapiens; MV4-11, MTS, 24 hours
# Procedure: as §1
# [8] = test system: NOMO-1; assay: Cell proliferation MTS assay; format: cell-based; conditions: Homo sapiens; NOMO-1, MTS, 24 hours
# Procedure: as §1
# [9] = test system: SKM-1; assay: Cell proliferation MTS assay; format: cell-based; conditions: Homo sapiens; SKM-1, MTS, 24 hours
# Procedure: as §1
# [10] = test system: THP-1; assay: Cell proliferation MTS assay; format: cell-based; conditions: Homo sapiens; THP-1, MTS, 24 hours
# Procedure: as §1
# [11] = test system: cord blood CD34+ cells; assay: Colony formation (clonogenic) assay in healthy cells; format: cell-based, human
# Procedure: In order to determine viability after UBE2N knockdown or inhibition, 1×10^6 AML cells were washed with PBS and mixed with pre-diluted APC-conjugated Annexin V (BD Pharmigen, Franklin Lakes, N.J.) and Propidium iodide (PI) (Invitrogen ThermoFisher 00-6990-42, Waltham, Mass.). Cells were stained at room temperature for 15 minutes and suspended in 0.5 ml of Annexin V incubation buffer (eBiosciences 88-8007-74, San Diego, Calif.) for analysis using a BD FACS Canto System (BD Biosciences, San Jose, Calif.). For UBE2N knockdown experiments, PI−/GFP+ cells were sorted using a MoFlo XDP sorter (Beckman Coulter, Brea, Calif.) and plated in methylcellulose (StemCell Technologies H4236, Vancouver, CA) at 1000 cells/ml in 35 mm culture dishes. For UBE2N inhibition experiments, cell lines were plated in methycellulose (StemCell Technologies H4236, Vancouver, CA) at the indicated concentrations of inhibitor. Cells were incubated at 37° C. and 5% CO2. Colonies were scored after 7 days in culture. For UBE2N or UBE2N C87S overexpression experiments, MOLM-13 cells were transduced with lentivectors overexpressing UBE2N wild type or mutant in the presence of polybrene (8 μg/ml). […] Colonies were scored at 7 days. […] Colonies were manually scored at 14-16 days after plating or counted with STEMVision (StemCell Technologies, Vancouver, CA).
# [12] = test system: patient-derived AML cells; assay: Viability (MTS) of patient-derived AML samples (PDX AMLs); format: cell-based, human; conditions: hierarchical clustering, MTS 24 h
# Procedure: AML cell lines (5×10^3 cells/well) were seeded in 96-well plates and grown for 24 to 96 h in serum (10%)-containing medium in the presence or absence of inhibitors at the indicated concentrations. Proliferation was analyzed by means of an MTS assay using the CellTiter 96 Aqueous One Solution Cell Proliferation Assay (Promega, Madison, Wis., USA), according to the manufacturer's instructions. Data are mean with standard deviation from three independent experiments in technical triplicates. For the screening of 160 compounds from the UC library, the cell metabolic activity was assessed at 24 hours of treatment of MOLM-13 cells. Top 15 candidates were re-screened at 2 μM, and the cell metabolic activity was determined at 24 hours of treatment. In certain experiments, cell viability was determined by staining the cells with trypan blue at a 1/2 dilution and counting total number of viable cells upon treatment with UC-764864 or DMSO control. The cells were counted daily for 4 days using an automated cell counter (Countess II FL from Life Technologies). […] UC-764864 was added at the indicated concentrations and cells were incubated with drug for 3 days, at which point cell viability was measured by MTS according to manufacturer's instructions. […]
structure (smiles),measurement,setting,value
"CCc1ccc(C(=O)C=CSc2nc3ccc(C)cc3[nH]2)cc1 [UC-764864, 1-(4-ethylphenyl)-3-[(6-methyl-1H-benzimidazol-2-yl)sulfanyl]prop-2-en-1-one]",IC50,[1],4.3 µM
same,IC50,[2],> 10 µM
same,IC50,[3],6.6 µM
same,IC50,[4],> 10 µM
same,IC50,[5],5.6 µM
same,IC50,[6],0.02 µM
same,IC50,[7],5 µM
same,IC50,[8],6.7 µM
same,IC50,[9],0.4 µM
same,IC50,[10],2.5 µM
same,clonogenic potential of cord blood CD34+ cells,[11],did not affect
same,sensitivity class of the other 20 PDX AMLs,[12]; 20 of 26 PDX AMLs,resistant
same,"sensitivity class of PDX AMLs JM1, JM7, JM18, JM26, JM30, JM40",[12]; six of 26 PDX AMLs,sensitive
